# Assay results: patent US20260132127A1, “NOVEL SPIRO COMPOUND” (MITSUBISHI TANABE PHARMA CORPORATION, priority 2021, published 2026)
# Biological target: T1, human TRH-DE (Homo sapiens, UniProt Q9UKU6)
# T1 construct: expressed in transfected cells; host or cells: Expi 293 cells (transient expression), membrane fraction
# T1 sequence (Q9UKU6 1-1069): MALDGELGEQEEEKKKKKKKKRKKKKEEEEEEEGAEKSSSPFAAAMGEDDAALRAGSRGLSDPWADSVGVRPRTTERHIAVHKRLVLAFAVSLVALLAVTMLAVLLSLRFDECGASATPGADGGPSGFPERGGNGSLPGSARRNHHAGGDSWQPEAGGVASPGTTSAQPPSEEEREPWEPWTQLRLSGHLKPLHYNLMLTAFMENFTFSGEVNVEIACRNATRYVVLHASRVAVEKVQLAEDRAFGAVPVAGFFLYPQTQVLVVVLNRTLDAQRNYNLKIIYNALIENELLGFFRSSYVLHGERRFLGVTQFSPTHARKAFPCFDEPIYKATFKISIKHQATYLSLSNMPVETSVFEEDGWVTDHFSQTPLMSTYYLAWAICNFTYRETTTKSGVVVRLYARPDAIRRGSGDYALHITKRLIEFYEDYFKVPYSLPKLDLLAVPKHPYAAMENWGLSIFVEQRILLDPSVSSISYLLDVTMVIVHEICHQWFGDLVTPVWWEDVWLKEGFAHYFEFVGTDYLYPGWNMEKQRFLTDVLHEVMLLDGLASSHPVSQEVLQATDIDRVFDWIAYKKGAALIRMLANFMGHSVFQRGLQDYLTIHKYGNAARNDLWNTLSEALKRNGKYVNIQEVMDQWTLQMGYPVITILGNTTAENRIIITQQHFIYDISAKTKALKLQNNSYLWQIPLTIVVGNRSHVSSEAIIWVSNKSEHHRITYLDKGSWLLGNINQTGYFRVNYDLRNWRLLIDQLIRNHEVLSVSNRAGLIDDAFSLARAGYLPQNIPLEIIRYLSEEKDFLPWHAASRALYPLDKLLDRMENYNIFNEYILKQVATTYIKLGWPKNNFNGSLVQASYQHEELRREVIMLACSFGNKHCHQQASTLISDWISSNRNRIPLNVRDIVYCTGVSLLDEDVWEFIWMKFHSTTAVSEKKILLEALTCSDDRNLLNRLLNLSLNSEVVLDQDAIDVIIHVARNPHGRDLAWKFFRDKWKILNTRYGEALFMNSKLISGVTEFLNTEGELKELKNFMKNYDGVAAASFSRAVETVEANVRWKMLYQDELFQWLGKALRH
# Assay: TRH-DE inhibition test (RapidFire MS measurement of product Cyclo (His-Pro))
# Format: biochemical
# Details: membrane fraction of Expi 293 cells expressing human TRH-DE; 10 μM TRH substrate; room temperature, 2 hours; 16-point concentration test
# Summary of the method: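 Inhibition derived from product/internal-standard ratios of Cyclo(His-Pro), quantified by RapidFire triple-quadrupole MS after acetonitrile:methanol quench, with IC50 fitted over 16 concentrations. Enzyme source: membranes of Expi 293 cells transiently expressing human TRH-DE, 4 μg/ml, pH 7.4 phosphate buffer. Incubation with 10 μM substrate ran 2 h at room temperature.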
row,Compound,IC50
1,Cc1nn(C2CC3(C2)CN(S(=O)(=O)c2ccccc2F)C3)c(=O)c2ccccc12 [Example 242],0.655 µM
2,O=C1c2ccccc2C2(CC2)N1C1CC2(C1)CN(S(=O)(=O)c1ccccc1F)C2 [Example 244],0.042 µM
3,"C[C@@H]1CN(C)c2nc(C(F)(F)F)ccc2C(=O)N1C1CC2(C1)CN(S(=O)(=O)c1ccccc1F)C2 [Example 247, (3R)-4-[2-(2-fluorophenyl)sulfonyl-2-azaspiro[3.3]heptan-6-yl]-1,3-dimethyl-8-(trifluoromethyl)-2,3-dihydropyrido[2,3-e][1,4]diazepin-5-one]",0.002 µM
4,CC1c2ccccc2N(C)C(=O)CN1C1CC2(C1)CN(S(=O)(=O)c1ccccc1F)C2 (stereo not drawn) [Example 248],0.731 µM
5,C[C@@H]1CNc2cc(C(F)(F)F)cnc2C(=O)N1C1CC2(C1)CN(S(=O)(=O)c1ccccc1F)C2 [Example 254],0.002 µM
6,C[C@@H]1CNc2ncccc2C(=O)N1C1CC2(C1)CN(S(=O)(=O)c1ccccc1F)C2 [Example 255],0.007 µM
7,C[C@@H]1CNc2ncc(C(F)(F)F)cc2C(=O)N1C1CC2(C1)CN(S(=O)(=O)c1ccccc1F)C2 [Example 256],0.003 µM
8,C[C@@H]1CNc2ncc(C(F)(F)F)cc2C(=O)N1C1CC2(C1)CN(S(=O)(=O)c1ccccc1[N+](=O)[O-])C2 [Example 257],0.061 µM
9,"C[C@@H]1CNc2nc(C3CC3)ccc2C(=O)N1C1CC2(C1)CN(S(=O)(=O)c1ccccc1F)C2 [Example 258, (3R)-8-cyclopropyl-4-[2-(2-fluorophenyl)sulfonyl-2-azaspiro[3.3]heptan-6-yl]-3-methyl-2,3-dihydro-1H-pyrido[2,3-e][1,4]diazepin-5-one]",0.001 µM
10,C[C@@H]1CCn2c(nnc2C2CC2)C(=O)N1C1CC2(C1)CN(S(=O)(=O)c1ccccc1F)C2 [Example 261],0.028 µM
11,C[C@@H]1CCn2c(nnc2C(C)(C)C)C(=O)N1C1CC2(C1)CN(S(=O)(=O)c1ccccc1F)C2 [Example 262],0.091 µM
12,C[C@@H]1CCn2c(nnc2-c2ccccc2)C(=O)N1C1CC2(C1)CN(S(=O)(=O)c1ccccc1F)C2 [Example 263],0.032 µM
13,Cc1nnc2n1C[C@@H](C)N(C1CC3(C1)CN(S(=O)(=O)c1ccccc1F)C3)C2=O [Example 264],0.459 µM
14,"CC1c2ccccc2C(=O)N1C1CC2(C1)CN(S(=O)(=O)c1ccccc1F)C2 (stereo not drawn) [Example 266, 2-[2-(2-fluorophenyl)sulfonyl-2-azaspiro[3.3]heptan-6-yl]-3-methyl-isoindolin-1-one]",0.092 µM
15,"CC1c2cc(C(F)(F)F)cnc2C(=O)N1C1CC2(C1)CN(S(=O)(=O)c1ccccc1F)C2 (stereo not drawn) [Example 290, 6-[2-(2-fluorophenyl)sulfonyl-2-azaspiro[3.3]heptan-6-yl]-5-methyl-3-(trifluoromethyl)-5H-pyrrolo[3,4-b]pyridin-7-one]",0.104 µM
16,"C[C@@H]1COc2c(noc2Br)C(=O)N1C1CC2(C1)CN(S(=O)(=O)c1ccccc1F)C2 [Example 297, (6R)-3-bromo-7-[2-(2-fluorophenyl)sulfonyl-2-azaspiro[3.3]heptan-6-yl]-6-methyl-5,6-dihydroisoxazolo[3,4-f][1,4]oxazepin-8-one]",0.018 µM
17,C[C@@H]1Cn2c(Br)nc(C3CC3)c2C(=O)N1C1CC2(C1)CN(S(=O)(=O)c1ccccc1F)C2 [Example 298],0.025 µM
18,C[C@@H]1CCn2c(C3CC3)nc(Cl)c2C(=O)N1C1CC2(C1)CN(S(=O)(=O)c1ccccc1F)C2 [Example 299],0.033 µM
19,"CC1CC(F)(F)c2ncccc2C(=O)N1C1CC2(C1)CN(S(=O)(=O)c1ccccc1F)C2 (stereo not drawn) [Example 300, 9,9-Difluoro-6-[2-(2-fluorophenyl)sulfonyl-2-azaspiro[3.3]heptan-6-yl]-7-methyl-7,8-dihydropyrido[3,2-c]azepin-5-one]",0.168 µM
20,"CC(=O)N1C[C@@H](C)N(C2CC3(C2)CN(S(=O)(=O)c2ccccc2F)C3)C(=O)c2ncccc21 [Example 302, (3R)-1-acetyl-4-[2-(2-fluorophenyl)sulfonyl-2-azaspiro[3.3]heptan-6-yl]-3-methyl-2,3-dihydropyrido[3,2-e][1,4]diazepin-5-one]",0.047 µM
21,CCC(=O)N1C[C@@H](C)N(C2CC3(C2)CN(S(=O)(=O)c2ccccc2F)C3)C(=O)c2ncccc21 [Example 303],0.082 µM
22,CCCC(=O)N1C[C@@H](C)N(C2CC3(C2)CN(S(=O)(=O)c2ccccc2F)C3)C(=O)c2ncccc21 [Example 304],1.07 µM
23,CC(C)C(=O)N1C[C@@H](C)N(C2CC3(C2)CN(S(=O)(=O)c2ccccc2F)C3)C(=O)c2ncccc21 [Example 305],0.062 µM
24,C[C@@H]1CN(C(=O)c2ccccc2)c2cccnc2C(=O)N1C1CC2(C1)CN(S(=O)(=O)c1ccccc1F)C2 [Example 308],0.655 µM

# More lines, in order of falling IC50, values ahead:
row,IC50,Compound
1,0.616 µM,Cc1nn(C2CC3(C2)CN(S(=O)(=O)c2ccccc2)C3)c(=O)c2ccccc12 [Example 241]
2,0.436 µM,Cc1nn(C2CC3(C2)CN(S(=O)(=O)c2ccccc2F)C3)c(=O)c2ncccc12 [Example 243]
3,0.419 µM,"CC1c2ccncc2C(=O)N1C1CC2(C1)CN(S(=O)(=O)c1ccccc1F)C2 (stereo not drawn) [Example 296, 2-[2-(2-fluorophenyl)sulfonyl-2-azaspiro[3.3]heptan-6-yl]-1-methyl-1H-pyrrolo[3,4-c]pyridin-3-one]"
4,0.287 µM,C[C@@H]1Cn2c(nnc2C2CC2)C(=O)N1C1CC2(C1)CN(S(=O)(=O)c1ccccc1F)C2 [Example 265]
5,0.285 µM,COCC(=O)N1C[C@@H](C)N(C2CC3(C2)CN(S(=O)(=O)c2ccccc2F)C3)C(=O)c2ncccc21 [Example 307]
6,0.214 µM,"CCn1c2ccccc2c(=O)n1C1CC2(C1)CN(S(=O)(=O)c1ccccc1)C2 [Example 250, 2-[2-benzenesulfonyl-2-azaspiro[3.3]heptan-6-yl]-1-ethyl-indazol-3-one]"
7,0.097 µM,"Cc1nnc2n1CC[C@@H](C)N(C1CC3(C1)CN(S(=O)(=O)c1ccccc1F)C3)C2=O [Example 260, (7R)-8-[2-(2-fluorophenyl)sulfonyl-2-azaspiro[3.3]heptan-6-yl]-3,7-dimethyl-6,7-dihydro-5H-[1,2,4]triazolo[4,3-a][1,4]diazepin-9-one]"
8,0.091 µM,"CC1C=C(F)c2ncccc2C(=O)N1C1CC2(C1)CN(S(=O)(=O)c1ccccc1F)C2 (stereo not drawn) [Example 301, 9-fluoro-6-[2-(2-fluorophenyl)sulfonyl-2-azaspiro[3.3]heptan-6-yl]-7-methyl-7H-pyrido[3,2-c]azepin-5-one]"
9,0.067 µM,"CC1(O)c2ccccc2C(=O)N1C1CC2(C1)CN(S(=O)(=O)c1ccccc1F)C2 (stereo not drawn) [Example 283, 2-[2-(2-fluorophenyl)sulfonyl-2-azaspiro[3.3]heptan-6-yl]-3-hydroxy-3-methyl-isoindolin-1-one]"
10,0.056 µM,C[C@@H]1CN(C(=O)C2CC2)c2cccnc2C(=O)N1C1CC2(C1)CN(S(=O)(=O)c1ccccc1F)C2 [Example 306]
11,0.042 µM,"CC1(O)c2cc(C(F)(F)F)cnc2C(=O)N1C1CC2(C1)CN(S(=O)(=O)c1ccccc1F)C2 (stereo not drawn) [Example 275, 6-[2-(2-fluorophenyl)sulfonyl-2-azaspiro[3.3]heptan-6-yl]-5-hydroxy-5-methyl-3-(trifluoromethyl)pyrrolo[3,4-b]pyridin-7-one]"
12,0.022 µM,COCCCN1C[C@@H](C)N(C2CC3(C2)CN(S(=O)(=O)c2ccccc2F)C3)C(=O)c2ncccc21 [Example 246]
13,0.008 µM,C[C@@H]1CNc2cc(Cl)cnc2C(=O)N1C1CC2(C1)CN(S(=O)(=O)c1ccccc1F)C2 [Example 253]
14,0.002 µM,"CCN1C[C@@H](C)N(C2CC3(C2)CN(S(=O)(=O)c2ccccc2F)C3)C(=O)c2ncccc21 [Example 245, (3R)-1-ethyl-4-[2-(2-fluorophenyl)sulfonyl-2-azaspiro[3.3]heptan-6-yl]-3-methyl-2,3-dihydropyrido[3,2-e][1,4]diazepin-5-one]"
15,0.001 µM,"C[C@@H]1CNc2nc(Cl)ccc2C(=O)N1C1CC2(C1)CN(S(=O)(=O)c1ccccc1F)C2 [Example 251, (3R)-8-chloro-4-[2-(2-fluorophenyl)sulfonyl-2-azaspiro[3.3]heptan-6-yl]-3-methyl-2,3-dihydro-1H-pyrido[2,3-e][1,4]diazepin-5-one]"
